Key:
[1] = Oxygen radical absorbance capacity assay (ORAC-FL); details: for ORAC (Oxygen Radical Absorbance Capacity): pH 7.4
Procedure: The ORAC-FL method of Ou et al.[37], partially modified by Dávalos et al.[38], was followed, using a FLUOstar Optima (BMG Labtechnologies GmbH, Offenburg, Germany) with 485 excitation and 520 emission filters. 2,2′-Azobis-(amidinopropane) dihydrochloride (AAPH), (±)-6-hydroxy-2,5,7,8-tetramethylchromane-2-carboxylic acid (trolox) and fluorescein (FL) were purchased from Sigma-Aldrich. The reaction was carried out in 75 mM phosphate buffer (pH 7.4) and the final reaction mixture was 200 µL. […] The mixture was pre-incubated for 30 min at 37 °C and then AAPH solution (25 µL, 240 mM) was added rapidly using a multichannel pipette. The microplate was immediately placed in the reader and the fluorescence was recorded every 90 s. for 90 min. The microplate was automatically shaken prior to each reading. Samples were measured at four different concentrations (10^−1 µM). A blank (FL + AAPH in phosphate buffer) instead of the sample solution and four calibration solutions using trolox (10^−1 µM) was also used in each assay. All of the reaction mixtures were prepared in duplicate and at least three independent assays were performed for each sample. Raw data were exported from the Fluostar optima Software to an Excel sheet for further calculations. Antioxidant curves (fluorescence vs. time) were represented and the area under the curve (AUC) is calculated as: AUC =f1/f0+fi/f0+ … +f34/f0+ (f35/f0) where fo = initial fluorescence reading at 0 min and fi = fluorescence reading at time i. The net AUC is obtained by subtracting the AUC of the blank from that of a sample. The relative Trolox equivalent ORAC value is calculated as: Relative ORAC value =[(AUC sample - AUC blank)/(AUCT rolox - AUC blank)](molarity of trolox/molarity of sample)

[2] = biological target: T1, AChE from human erythrocytes (Homo sapiens, UniProt P22303); assay: In vitro AChE inhibition assay (Ellman); assay type: biochemical; details: for IC50: mean ± SEM, 3 experiments, acetylthiocholine substrate; for inhibition at 10 µM: 10 µM compound, read-out: AChE percentage of inhibition at 10 µM
T1 construct: AChE from human erythrocytes (EC 3.1.1.7); purchased Sigma; host or cells: human erythrocytes (tissue-derived)
T1 sequence (P22303 32-617 isoform P22303-2 limits assumed): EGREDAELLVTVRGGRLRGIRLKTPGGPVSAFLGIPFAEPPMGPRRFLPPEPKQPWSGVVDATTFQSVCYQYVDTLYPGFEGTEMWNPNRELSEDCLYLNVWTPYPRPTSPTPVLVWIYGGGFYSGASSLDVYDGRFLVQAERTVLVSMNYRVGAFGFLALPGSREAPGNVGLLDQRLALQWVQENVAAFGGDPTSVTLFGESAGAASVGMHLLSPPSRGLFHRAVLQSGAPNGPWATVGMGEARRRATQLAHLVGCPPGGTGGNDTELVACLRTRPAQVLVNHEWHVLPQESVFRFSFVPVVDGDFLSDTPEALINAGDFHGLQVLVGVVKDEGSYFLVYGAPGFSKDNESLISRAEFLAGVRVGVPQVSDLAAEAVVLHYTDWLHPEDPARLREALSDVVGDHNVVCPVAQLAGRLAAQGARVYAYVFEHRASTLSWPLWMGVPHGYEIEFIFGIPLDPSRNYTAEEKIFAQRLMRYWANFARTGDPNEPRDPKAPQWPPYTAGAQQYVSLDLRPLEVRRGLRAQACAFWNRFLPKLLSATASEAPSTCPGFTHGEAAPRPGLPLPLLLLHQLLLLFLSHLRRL
Procedure: (§1) AChE from human erythrocytes (EC 3.1.1.7) (min. 500 units/mg protein in buffered aqueous solution) and BuChE from human serum (EC 3.1.1.8) (3 units/mg protein, lyophilised powder) were purchased from Sigma.
(§2) Compounds were evaluated in 100 mM phosphate buffer pH 8.0 at 30 °C, using acetylthiocholine and butyrylthiocholine (0.4 mM) as substrates, respectively. In both cases, 5,5-dithio-bis(2-nitrobenzoic) acid (DTNB, Ellman’s reagent, 0.2 mM) was used and the values of IC50 were calculated by UV spectroscopy from the absorbance changes at 412 nm. Experiments were performed in triplicate.

BACE1 = biological target: T2, BACE1 (Homo sapiens, UniProt P56817); assay: BACE1 enzymatic FRET assay; assay type: biochemical; details: for IC50: pH 4.5, mean ± SEM; for inhibition at 10 µM: pH 4.5, 10 µM compound, read-out: BACE1 percentage of inhibition at 10 µM
T2 construct: purchased Invitrogen
T2 sequence (P56817 46-501): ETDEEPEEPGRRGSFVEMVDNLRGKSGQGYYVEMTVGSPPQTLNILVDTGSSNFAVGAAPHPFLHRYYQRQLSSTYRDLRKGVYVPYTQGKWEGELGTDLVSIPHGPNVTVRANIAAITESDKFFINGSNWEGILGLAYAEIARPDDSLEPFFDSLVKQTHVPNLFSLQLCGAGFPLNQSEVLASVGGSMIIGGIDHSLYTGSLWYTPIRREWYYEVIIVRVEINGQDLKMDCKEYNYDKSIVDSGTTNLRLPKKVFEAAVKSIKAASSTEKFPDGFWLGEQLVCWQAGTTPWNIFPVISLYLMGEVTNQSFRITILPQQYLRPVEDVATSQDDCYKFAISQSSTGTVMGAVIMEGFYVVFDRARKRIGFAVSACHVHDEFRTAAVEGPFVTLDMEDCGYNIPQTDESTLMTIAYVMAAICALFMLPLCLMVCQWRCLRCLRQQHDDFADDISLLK
Procedure: The BACE1 ([…]) assay was carried out according to the manufacturer’s described protocol which is available from Invitrogen[36].
Briefly, BACE1 in vitro assays were carried out using fluorescence resonance energy transfer (FRET). An APP-based peptide substrate (rhodamine-EVNLDAEFK-quencher, Km of 20 μM) carrying the Swedish mutation and containing rhodamine as a fluorescence donor and a quencher acceptor at each end was used. The intact substrate is weakly fluorescent and becomes highly fluorescent upon enzymatic cleavage. The assays were conducted in 50 mM sodium acetate buffer, pH 4.5, at a final enzyme concentration of 1 U/mL. Inhibitor screening was performed at 10 μM. The mixture was incubated for 60 min at 25 °C under dark conditions and then stopped with 2.5 M sodium acetate. Fluorescence was measured with a FLUOstar Optima (BMG Labtechnologies GmbH, Offenburg, Germany) microplate reader at 545 nm excitation and 585 nm emission. The assay kit was validated by the manufacturer.

BuChE from human serum = biological target: T3, BuChE from human serum (Homo sapiens, UniProt P06276); assay: In vitro BuChE inhibition assay (Ellman); assay type: biochemical; details: for IC50: mean ± SEM, 3 experiments, butyrylthiocholine substrate; for inhibition at 10 µM / BuChE percentage of inhibition at 10 µM: 10 µM compound; for inhibition at 10 µM: read-out: BuChE percentage of inhibition at 10 µM
T3 construct: BuChE from human serum (EC 3.1.1.8); purchased Sigma; host or cells: human serum (tissue-derived)
T3 sequence (P06276 29-602): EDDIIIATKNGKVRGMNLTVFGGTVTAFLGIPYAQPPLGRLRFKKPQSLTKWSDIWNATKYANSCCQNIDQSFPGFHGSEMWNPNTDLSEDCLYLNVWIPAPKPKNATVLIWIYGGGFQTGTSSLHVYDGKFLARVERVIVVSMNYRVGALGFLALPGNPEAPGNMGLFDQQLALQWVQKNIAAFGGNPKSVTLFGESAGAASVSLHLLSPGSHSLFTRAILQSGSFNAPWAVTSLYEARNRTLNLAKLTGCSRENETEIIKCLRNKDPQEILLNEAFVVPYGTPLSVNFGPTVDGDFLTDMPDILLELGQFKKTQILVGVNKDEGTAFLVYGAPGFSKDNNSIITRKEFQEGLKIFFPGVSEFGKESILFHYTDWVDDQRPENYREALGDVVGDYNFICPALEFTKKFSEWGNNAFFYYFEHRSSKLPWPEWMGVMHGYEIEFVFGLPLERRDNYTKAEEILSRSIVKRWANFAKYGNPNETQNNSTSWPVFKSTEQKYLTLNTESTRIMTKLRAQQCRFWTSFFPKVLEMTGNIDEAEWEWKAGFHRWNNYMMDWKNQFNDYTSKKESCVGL
Procedure: as §1, §2

Row | SMILES | ORAC (Oxygen Radical Absorbance Capacity) [1] | IC50 [2] [µM] | IC50 (BACE1) [µM] | IC50 (BuChE from human serum) [µM] | inhibition at 10 µM (BACE1) [%] | Antioxidant properties in relation to Trolox [1] | inhibition at 10 µM [2] [%] | inhibition at 10 µM (BuChE from human serum) [%] | BuChE percentage of inhibition at 10 µM (BuChE from human serum)
1 | Clc1cccc(COc2nn(Cc3cccc4ccccc34)c3ccc(NCCCN4CCCCC4)cc23)c1Cl [Compound 5] | 0.8 ± 0.1 μmol of Trolox equivalents/μmol of tested compound | > 10 | 2.7 ± 0.1 | > 10 | – | – | – | – | –
2 | O=C(Nc1ccc2c(c1)c(OCc1ccccc1)nn2Cc1ccccc1)c1cccc(Cl)c1Cl [Compound 7] | 0 μmol of Trolox equivalents/μmol of tested compound | 7.6 ± 0.3 | – | > 10 | 60 | – | – | – | –
3 | CCN(CC)C(=O)Nc1ccc2c(c1)c(OCc1cccc3ccccc13)nn2Cc1ccccc1 [Compound 8] | 0.9 ± 0.1 μmol of Trolox equivalents/μmol of tested compound | > 10 | 9.1 ± 0.5 | > 10 | – | higher than 60% | 29 | – | –
4 | CN(C(=O)Nc1ccc2c(c1)c(OCc1cccc3ccccc13)nn2Cc1ccc(Cl)cc1)c1ccccc1 [Compound 9] | 0.6 ± 0.1 μmol of Trolox equivalents/μmol of tested compound | > 10 | > 10 | > 10 | 29 | higher than 60% | – | – | –
5 | O=C(Nc1ccc2c(c1)c(OCc1cccc3ccccc13)nn2Cc1ccc(Cl)c(Cl)c1)N(c1ccccc1)c1ccccc1 [Compound 10] | 0.2 ± 0.1 μmol of Trolox equivalents/μmol of tested compound | > 10 | > 10 | > 10 | 10 | – | 28 | – | –
6 | CN1CCN(C(=O)Nc2ccc3c(c2)c(OCc2ccccc2)nn3Cc2cccc(Cl)c2Cl)CC1 [Compound 11] | 1.1 ± 0.1 μmol of Trolox equivalents/μmol of tested compound | > 10 | 2.8 ± 0.5 | > 10 | – | higher than 60% | – | 47 | –
7 | O=C(Nc1ccc2c(c1)c(OCc1cccc(Cl)c1Cl)nn2Cc1cccc2ccccc12)N1CCCC1 [Compound 12] | 0.5 ± 0.1 μmol of Trolox equivalents/μmol of tested compound | > 10 | > 10 | > 10 | 43 | – | – | – | –
8 | Nc1ccc2c(c1)c(OCc1ccccc1)nn2Cc1ccccc1 [Compound 27, 5-amino-1-benzyl-3-(benzyloxy)indazole] | 0.9 ± 0.1 μmol of Trolox equivalents/μmol of tested compound | 8.6 ± 0.5 | > 10 | > 10 | 2 | – | – | 21 | very slight inhibition
9 | Nc1ccc2c(c1)c(OCc1ccc3ccccc3c1)nn2Cc1ccc2ccccc2c1 [Compound 28] | 0.3 ± 0.1 μmol of Trolox equivalents/μmol of tested compound | 4.1 ± 0.2 | 8.9 ± 0.5 | > 10 | – | – | – | 24 | very slight inhibition
10 | Nc1ccc2c(c1)c(OCc1ccccc1)nn2Cc1cccc(Cl)c1Cl [Compound 29] | 0.7 ± 0.1 μmol of Trolox equivalents/μmol of tested compound | > 10 | > 10 | > 10 | – | – | – | – | –
11 | Nc1ccc2c(c1)c(OCc1cccc(Cl)c1Cl)nn2Cc1cccc2ccccc12 [Compound 30] | 0.8 ± 0.1 μmol of Trolox equivalents/μmol of tested compound | > 10 | – | > 10 | 79 | – | 36 | – | –
12 | Nc1ccc2c(c1)c(OCc1ccc3ccccc3c1)nn2Cc1ccc(Cl)c(Cl)c1 [Compound 31] | 0.63 ± 0.04 μmol of Trolox equivalents/μmol of tested compound | 6 ± 0.5 | – | > 10 | 69 | – | – | 30 | very slight inhibition
